Biological target: deoxyguanosine kinase (Homo sapiens)
Assay: Inhibition of human dGK assessed as […] phosphorylation

In the case of `CCCCCCCC(=O)O[C@H]1[C@H](O)[C@@H](CO)O[C@H]1n1cnc2c(=O)[nH]c(N)nc21` [9-(2'-O-octanoyl-beta-D-arabinofuranosyl)guanine], the IC50 is reported as over 500 µM.
For `CCCCCCCC(=O)Nc1nc2c(ncn2[C@@H]2O[C@H](CO)[C@@H](O)[C@@H]2OC(=O)CCCCCCC)c(=O)[nH]1` [N2-octanoyl-9-(2'-O-octanoyl-beta-D-arabinofuranosyl)guanine], the IC50 was over 500 µM.

From BindingDB's records for doi:10.1016/j.bmc.2007.01.049 (University of Ferrara, 2007)
